Source: patent US11246929B2, “Combination of a protein kinase inhibitor and an additional chemotherapeutic agent” (Merck Patent GmbH, priority 2016, dated 2022)
Like-named read-outs stand apart in the source and are kept apart here.

How the values were obtained:
[1] = tested on: BxPC3 (pancreas, adeno) xenograft; assay: Xenograft, fractionated IR plus Compound 1, time to TV400%; format: in vivo, mouse
Protocol: (§1) The therapeutic relevance of DNA-PK inhibition by Compound 1 was investigated in vivo in combination with ionizing radiation (IR), a clinically established DSB-inducing treatment. Compound 1 was tested for activity in six xenograft mouse models of human cancer. The models were chosen from different cancer indications (colon, lung, head and neck, pancreatic), and histological subtypes (adeno, squamous, large cell). Ionizing radiation was administered using a fractionated schedule of 2 Gy per day administered over five consecutive days (total radiation dose=10 Gy). Compound 1 was given orally 10 min prior to each fraction of radiation (ONC397-1-2AZ, ONC397-1-3AZ, ONC397-1-4AZ, ONC397-1-5AZ, ONC397-1-8AZ).
(§2) Radiotherapy enhancing effect of Compound 1 was quantified across the tested models by the time to reaching 400% initial volume for the 150 mg/kg study arms. The resulting Kaplan-Meier plots were compared by the log-rank test.

[2] = tested on: Capan-1 (pancreas, adeno) xenograft; assay: as above; format: in vivo, mouse
Protocol: as §1, §2

[3] = tested on: HCT116 (colon, adeno) xenograft; assay: as above; format: in vivo, mouse
Protocol: as §1, §2

[4] = tested on: NCI-H460 (lung, large cell) xenograft; assay: as above; format: in vivo, mouse
Protocol: as §1, §2

FaDu xenograft = format: in vivo
From the text: The standard radiotherapy regimen used in the clinic is a 6-week fractionated treatment schedule (5 fractions of 2 Gy IR per week—60 Gy total).

[5] = tested on: human NCI-H526 SCLC xenograft; assay: NCI-H526 SCLC xenograft, combination with etoposide/cisplatin; format: in vivo
Protocol: The mice were acclimatized to the housing conditions for 1 week. […] Bedding consisted of aspen chips (E. Becker, Castrop-Rauxel). Room temperature was 24+/−2° C. and relative humidity was 50+/−10% at 15 air changes per hour. Drinking water (provided ad libitum) was supplemented with 1 mg/mL Chlorine and was adjusted to a pH of 6.5 with HCl. Sterile high protein maintenance diet for immunodeficient mice (Ssniff, Soest, product No V1244-72, γ-sterilized) was also provided ad libitum. The light cycle was set at 12 hrs light and 12 hrs darkness. Details of the study protocol are as follows:
Then the cell suspension (100 μL/animal) was subcutaneously inoculated in the right flank of immunodeficient CD1 mice.
Tumor measurements and calculations: When the tumors reached a volume of 96-214 mm^3 the animals were randomized into 7 treatment groups with 10 animals each. Tumor length (L) and width (W) were measured twice weekly by calipers. The tumor volume was calculated using the formula L×W2/2. Data were collected in Study Advantage™ (data collection system).
Treatment: dosing and scheduling per above.
T/C-value: The ability of a treatment to inhibit tumor growth was assessed at the end of each study by calculating the % T/C value according to following formulas: % T/C delta>0 calculation (mean): [(end tumor volume treatment−start tumor volume treatment)/(end tumor volume control−start tumor volume control)]×100] % T/C delta≤0 (regression) calculation (mean): [(end tumor volume treatment−start tumor volume treatment)/start tumor volume treatment]×100
Toxicity: The bodyweight change in % denotes the difference between the weight at start of treatment and the end of treatment. Changes of bodyweight during the treatment course are particularly important as it is considered a measure for presence or absence of treatment-related toxicity. A dosage producing a 20% body weight change (mean of group) or ≥10% drug deaths was considered an excessively toxic dosage. Animal body weights included the tumor weights.
Animals were treated with three 1-week cycles of chemotherapy consisting of Cisplatin (3 mg/kg once weekly) and Etoposide (4 mg/kg for three consecutive days per week).

DNA-PK (p-Ser2056) [6] = biological target: T1, DNA-PK (p-Ser2056) (Homo sapiens, UniProt P78527); assay: IR-induced DNA-PK phosphorylation in tumor tissue, ELISA, FaDu xenograft; format: in vivo; conditions: IR 50 Gy
T1 construct: from tissue; host or cells: human tumor xenografts (FaDu, HCT116, WM164) grown in mice
From the text: (§3) Following the induction of DSB by radiation therapy or other DNA damaging agents, the catalytic subunit of DNA-PK (DNA-PKc) is autophosphorylated at several serine and threonine residues. Ser2056 is one of the most prominent and best studied autophosphorylation sites. Because Ser2056 phosphorylation (p-Ser2056) correlated well with DNA-PK activation state it was chosen as the pharmacodynamics (PD) biomarker. Two different assay formats were established to measure p-Ser2056 in tumor tissue: ELISA and MSD format. In order to detect sequence reliable signal, IR was used at 50 Gy for the ELISA assay and 10 Gy for the more sensitive MSD assay.

DNA-PK (p-Ser2056) [7] = biological target: T1, DNA-PK (p-Ser2056); assay: IR-induced DNA-PK phosphorylation in tumor tissue, ELISA, HCT116 xenograft; format: in vivo; conditions: IR 50 Gy
From the text: as §3

DNA-PK (p-Ser2056) [8] = biological target: T1, DNA-PK (p-Ser2056); assay: IR-induced DNA-PK phosphorylation in tumor tissue, MSD assay, WM164 xenograft; format: in vivo
From the text: as §3

[9] = tested on: 81 cancer cell lines representing 17 tumor tissue types; assay: Single agent activity, panel of 81 cancer cell lines plus PBMC; format: cell-based; conditions: for GI50: PBMC
[10] = tested on: resting, non-proliferating PBMC; assay: as above; format: cell-based
colon cancer cell lines = assay: cells; conditions: read-out: Median etoposide concentration needed to reach GI50
Protocol: (§4) Single agent as well as combination treatment growth inhibition effects were measured by ONCOLEAD.
(§5) Relative area above the dose-response curve (relAOC or AOC) were obtained as the area above the dose-response curve in the dose range between 1E-3M and 1E-10M.

[11] = tested on: mesothelioma (pleura) cell lines; assay: cells; conditions: read-out: Median etoposide concentration needed to reach GI50
Protocol: as §4, §5

CACO2 = assay: cells; conditions: Homo sapiens, Caco-2, read-out: GI50 of etoposide (±Compound 1)
Protocol: Cell growth and treatment were performed in 96-well microtitre plates CELLSTAR® (Greiner Bio-One, Germany). Cells harvested from exponential phase cultures by trypsinization or by splitting (in the case of cells growing in suspension) were plated in 90 μl of media at optimal seeding densities. The optimal seeding density for each cell line was determined to ensure exponential growth for the duration of the experiment. All cells growing without anticancer agents were sub-confluent by the end of the treatment, as determined by visual inspection.
90 μl of cells, after a 48-hour pre-growth period, were treated by mixing with 10 μl of the compound-containing media (resulting in a final DMSO concentration of 0.1%). The cells were allowed to grow at 37° C. for 72 (or 120) hours.
Cells were fixed to the surface by addition of 10% TCA (for adherent growing cells) or 50% TCA (for semi-adherent growing cell or cells growing in suspension). After an hour of incubation at 4° C. plates were washed twice with 200 μl of deionized water and dried. Cells were then stained with 100 μl of 0.04% w/v SRB. […]
Using these measurements, cellular responses can be calculated for incomplete inhibition of cell growth (GI), complete inhibition of cell growth (TGI) and net loss of cells (LC) due to compound activity. […] TGI was calculated from Ti=Tz. […] It was calculated as 100×[(Ti−Tz)/Tz]=−50.

SKNSH = assay: SRB growth inhibition, 93 cell lines panel; conditions: Homo sapiens, SK-N-SH, read-out: GI50 of etoposide (±Compound 1)
Protocol: (§6) Cell growth and treatment were performed in 96-well microtitre plates CELLSTAR® (Greiner Bio-One, Germany). Cells harvested from exponential phase cultures by trypsinization or by splitting (in the case of cells growing in suspension) were plated in 90 μl of media at optimal seeding densities. The optimal seeding density for each cell line was determined to ensure exponential growth for the duration of the experiment. All cells growing without anticancer agents were sub-confluent by the end of the treatment, as determined by visual inspection. […] The cells were allowed to grow at 37° C. for 72 (or 120) hours. […] Cells were fixed to the surface by addition of 10% TCA (for adherent growing cells) or 50% TCA (for semi-adherent growing cell or cells growing in suspension). After an hour of incubation at 4° C. plates were washed twice with 200 μl of deionized water and dried. Cells were then stained with 100 μl of 0.04% w/v SRB. The plates were incubated at room temperature for at least 30 min and washed six times with 1% acetic acid to remove unbound stain. […] Using these measurements, cellular responses can be calculated for incomplete inhibition of cell growth (GI), complete inhibition of cell growth (TGI) and net loss of cells (LC) due to compound activity. […] TGI was calculated from Ti=Tz.

1587MG = assay: SRB growth inhibition, 93 cell lines panel; conditions: read-out: GI50 of etoposide (±Compound 1)
Protocol: as §6

[12] = IR 10 Gy (5 x 2 Gy) + Compound 1 150 mg/kg po
[13] = IR 10 Gy (5 x 2 Gy) + Compound 1 150 mg/kg po 10 min prior to each fraction

## COc1ccc([C@@H](O)c2cc(-c3ncnc4cc(N5CCOCC5)ccc34)c(F)cc2Cl)nn1 [Compound 1, (S)-[2-chloro-4-fluoro-5-(7-morpholin-4-yl-quinazolin-4-yl)-phenyl]-(6-methoxy-pyridazin-3-yl)-methanol]
[1]; [12]
  Enhancement Ratio [combi/IR only]: 2
[1]; [13]
  median time to TV400% Combi: 73.5 days
[2]; [12]
  Enhancement Ratio [combi/IR only]: 2
[2]; [13]
  median time to TV400% Combi: 132 days
[3]; [12]
  Enhancement Ratio [combi/IR only]: 1.5
[3]; [13]
  median time to TV400% Combi: 46 days
[4]; [12]
  Enhancement Ratio [combi/IR only]: 2.6
[4]; [13]
  median time to TV400% Combi: 45 days
FaDu xenograft; 6 weeks IR (60 Gy total) + 10 mg/kg po, no regrowth during study period (113 days)
  complete tumor regression, % of the animals: 44%
FaDu xenograft; 6 weeks IR (60 Gy total) + 25 and 50 mg/kg po
  tumor regression: regressed in all 10 animals
FaDu xenograft; 6 weeks IR (60 Gy total) + Compound 1 po
  tumor growth in comparison to IR alone: strong inhibition of tumor growth
FaDu xenograft; 6 weeks IR + Compound 1
  tolerability: generally well tolerated
[5]; Compound 1 daily throughout the study vs separated from SoC by 7 h or days
  efficacy by schedule: better efficacy
[5]; SoC combined with Compound 1
  body weight change: additional body weight loss
[5]; day 21, Compound 1 50 mg/kg daily + etoposide 4 mg/kg + cisplatin 3 mg/kg, n=10
  mean tumor volume: 50 mm^3
[5]; day 21, Compound 1 50 mg/kg daily + etoposide + cisplatin
  decrease of mean tumor volume compared to starting volume: about 67%
[5]; day 28, combination arm
  animals showing complete response: 4/10
  animals with regression: 1/10
  animals with stable disease: 3/10
[5]; day 28, combination arm (Compound 1 + SoC)
  animals progression free: 9/10
[5]; in combination with Etoposide and Cisplatin
  antitumor activity: significantly enhanced antitumor activity
DNA-PK (p-Ser2056) [6]
  inhibition of IR-induced DNA-PK phosphorylation (Ser2056): Dose-dependent inhibition
DNA-PK (p-Ser2056) [7]
  inhibition of IR-induced DNA-PK phosphorylation (Ser2056): Dose-dependent inhibition
DNA-PK (p-Ser2056) [8]; WM164, MSD assay, IR 10 Gy
  inhibition of IR-induced DNA-PK phosphorylation (Ser2056): Dose-dependent inhibition
DNA-PK (p-Ser2056) [8]; WM164, 25 mg/kg 10 minutes prior to 10 Gy IR
  DNA-PK autophosphorylation in tumor tissue: inhibition of DNA-PK autophosphorylation
[9]
  activity range: more than 20 fold
[9]; in a set of cell lines, read-out: activity (GI50), lower end of range
  GI50: 500 nM
[9]; read-out: activity (GI50), upper end of range
  GI50: > 10000 nM
[10]
  activity in resting PBMC: No activity

## COc1cc([C@@H]2c3cc4c(cc3[C@@H](O[C@@H]3O[C@@H]5CO[C@@H](C)O[C@H]5[C@H](O)[C@H]3O)[C@H]3COC(=O)[C@H]23)OCO4)cc(OC)c1O [Etoposide]
[9]
  activity range: more than 1000 fold
[10]
  activity in resting PBMC: no activity
Colon cancer cell lines
  GI50: 700 nM
[11]
  GI50: 1000 nM
CACO2
  GI50: 3650 nM
SKNSH
  GI50: 265 nM
1587MG
  GI50: 2400 nM
